Data reported in US20140087007A1, “BOWEL CLEANSING PREPARATIONS” (Braintree Laboratories, Inc., priority 2012, published 2014).

System: colon (colonic purgation)
Assay: Stool output of normal volunteers after one amount of laxative, bowel movements collected 24 hours
Format: in vivo, human
Details: 20 mg, 24 hours collection
Protocol: The sulfate salt solutions such as those described herein were investigated for their efficacy as colon debulking agents because bisacodyl has been associated with reports of abdominal cramping. Four different solutions were prepared with varying amounts of sodium, magnesium, and potassium sulfate salts and each containing a total sulfate amount of 125 mM.
These included bisacodyl (20 mg), a PEG and balanced electrolyte isotonic preparation (NuLYTELY®, (2 L or 4 L) or HalfLytely®+Bisacodyl Bowel Prep Kit, (2 L PEG and electrolytes and 10 mg bisacodyl). Bowel movements and urine were collected for 24 hours. The stool output of the subjects were compared and evaluated for movement of electrolytes between the solution and the subject.
The results measured were mean stool volume output and are shown below in Table 2 using non-sulfate laxatives and in Table 3 using sulfate laxatives.

Question: Which “% Solids (stool)” value does the source give for `CC(=O)Oc1ccc(C(c2ccc(OC(C)=O)cc2)c2ccccn2)cc1` [Bisacodyl, bisacodyl] here?
Answer: 50.4%

Question: What about the “Output (mean stool volume output)” value of the same molecule?
Answer: 757 g
